Among the test systems are A549; ACHN; HCT-15; HOP-92; Hs-578T; K562; M14; MDA-MB-435; NCI-H226; OVCAR-4; RXF 393; SF-268; SK-MEL-5; SN12C; SNB-19; SR; SW-620; U-251; UACC-257; BT-549.
Assay in all cases: NCI anticancer screen, dose series, 48 h

Each structure is given as a SMILES string.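 1) Cells in 96-well plates. 2) Compound, 48 h, 5 concentrations. 3) Linear interpolation between surrounding doses. 4) Unreached endpoint = highest concentration. GI50 marks 50% less growth.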 Activity calls are given as the source filed them. Rule as the data show it: active = GI50 up to about 1.1 µM and inactive = higher. Bounds are passed on as bounds.

`CCCCCCCCCc1c(Cl)nc(Cl)nc1Cl`: the GI50 is 20.9 µM (inactive) in the assay on A549; 19.5 µM (inactive) in the assay on ACHN; 12.3 µM in the assay on HCT-15; 15.3 µM (inactive) with HOP-92; 29.2 µM (inactive) in the assay with Hs-578T; 6.68 µM (inactive) with K562. In addition, the GI50 in the assay on M14 is 3.48 µM (inactive); with MDA-MB-435 it was 13.5 µM (inactive); in the assay on NCI-H226, 5.62 µM (inactive); with OVCAR-4, 15 µM (inactive); in the assay with RXF 393, 14.4 µM (inactive); in the assay on SF-268, 18.7 µM (inactive). In addition, the GI50 with SK-MEL-5 was 11.7 µM (inactive); with SN12C it was 12.9 µM (inactive); in the assay on SNB-19 it was 16.2 µM (inactive); in the assay on SR it was 2.84 µM (inactive); with SW-620 it was 10.1 µM (inactive); in the assay on U-251 it was 18.9 µM (inactive). In addition, the GI50 in the assay on UACC-257 is 19.8 µM (inactive).
Take `COc1ccc(CSc2ccccc2Cn2cccc2)cc1OC`: the GI50 is 98.2 µM (inactive) in the assay on A549; 10.4 µM (inactive) in the assay with ACHN; 46 µM (inactive) with BT-549; 87.9 µM with HCT-15; 27 µM (inactive) in the assay with K562; > 100 µM (inactive) in the assay on MDA-MB-435. Besides, the GI50 with NCI-H226 was > 100 µM (inactive); with OVCAR-4, 39.8 µM (inactive); in the assay on SF-268, > 100 µM (inactive); with SK-MEL-5, 22.4 µM (inactive); in the assay on SN12C, 34.8 µM (inactive); in the assay on SNB-19, > 100 µM (inactive). Besides, the GI50 in the assay on SR was 50.5 µM (inactive); in the assay with SW-620, > 100 µM (inactive); in the assay on U-251 it was > 100 µM (inactive); with UACC-257 it was 27.8 µM (inactive).
Take `Cc1cc(=O)oc2c(CNC(CO)C(=O)O)c(O)ccc12` (stereo not given): the GI50 is > 100 µM (inactive) with A549; > 100 µM (inactive) in the assay on ACHN; over 100 µM in the assay with HCT-15; > 100 µM (inactive) with HOP-92; > 100 µM (inactive) with Hs-578T; > 100 µM (inactive) with K562. In addition, the GI50 in the assay on M14, in the assay on MDA-MB-435, in the assay with NCI-H226, with OVCAR-4, in the assay with RXF 393 and in the assay on SF-268 was > 100 µM (inactive) throughout. For the same compound, the GI50 was > 100 µM (inactive) in the assay with SK-MEL-5; > 100 µM (inactive) in the assay with SN12C; > 100 µM (inactive) with SNB-19; 94.2 µM (inactive) in the assay on SR; > 100 µM (inactive) with SW-620; > 100 µM (inactive) in the assay with U-251. Besides, the GI50 in the assay on UACC-257 is > 100 µM (inactive).
On to `CN(C)C(=S)N/N=C\C=N/NC(=S)N(C)C`, for which the GI50 in the assay with A549 was 0.0918 µM (active); with ACHN, 0.238 µM (active); in the assay with BT-549, > 100 µM (inactive); in the assay on HCT-15, 0.0843 µM; in the assay on HOP-92 it was 1.65 µM (inactive); with K562, 23.9 µM (inactive). Besides, the GI50 in the assay with M14 is 0.139 µM (active); in the assay on MDA-MB-435, 0.953 µM (active); with NCI-H226, 0.515 µM (active); in the assay with OVCAR-4, 0.148 µM (active); with RXF 393 it was 0.277 µM (active); in the assay with SF-268, 0.112 µM (active). The GI50 with SK-MEL-5 was 0.349 µM (active); in the assay on SN12C, 0.286 µM (active); in the assay on SNB-19, 0.731 µM (active); in the assay with SW-620 it was 0.0569 µM (active); in the assay with U-251, 0.0614 µM (active); with UACC-257, 2.64 µM (inactive).
For `O=C(O)CCCNc1ncc2c(n1)-c1ccccc1OC2`, the GI50 is > 100 µM (inactive) in the assay on A549; > 100 µM (inactive) in the assay on ACHN; over 100 µM with HCT-15; > 100 µM (inactive) with HOP-92; > 100 µM (inactive) with Hs-578T; > 100 µM (inactive) in the assay on K562. Moreover, the GI50 with M14, with MDA-MB-435, with NCI-H226, in the assay with OVCAR-4, with RXF 393 and in the assay on SF-268 was > 100 µM (inactive) throughout. Further, the GI50 in the assay with SK-MEL-5, in the assay with SN12C, with SNB-19, with SR, in the assay on SW-620 and in the assay on U-251 was > 100 µM (inactive) in each case. Also, the GI50 in the assay on UACC-257 was > 100 µM (inactive).
In the case of `N#CC(c1nc2ccccc2s1)c1ncnc(Cl)c1[N+](=O)[O-]` (stereo not given), the GI50 with A549 is 36.3 µM (inactive); in the assay on ACHN it was 37.6 µM (inactive); in the assay with BT-549, 22.9 µM (inactive); in the assay with HCT-15, 17.9 µM; in the assay with HOP-92, 17.3 µM (inactive); in the assay on M14, 17.5 µM (inactive). Besides, the GI50 is 29.2 µM (inactive) in the assay with MDA-MB-435; 20.2 µM (inactive) with NCI-H226; 27.7 µM (inactive) in the assay on OVCAR-4; 25.5 µM (inactive) in the assay with RXF 393; 17.5 µM (inactive) in the assay on SF-268; 15.8 µM (inactive) with SK-MEL-5. The GI50 with SN12C is 18.2 µM (inactive); in the assay with SNB-19 it was 32.1 µM (inactive); with SW-620, 19.3 µM (inactive); in the assay on U-251 it was 32.7 µM (inactive); in the assay with UACC-257, 20.6 µM (inactive).
As for `O=C1C(Cl)=C(N2CCN(CCOCCO)CC2)C(=O)c2ccccc21`, the GI50 in the assay on A549 is 18.7 µM (inactive); with ACHN it was 7.36 µM (inactive); in the assay with HCT-15, 11.9 µM; with HOP-92, 1.49 µM (inactive); in the assay with Hs-578T, 19.1 µM (inactive); in the assay with K562 it was 2.2 µM (inactive). Moreover, the GI50 is 9.29 µM (inactive) with M14; 3.41 µM (inactive) in the assay on MDA-MB-435; 16.6 µM (inactive) in the assay with NCI-H226; 2.19 µM (inactive) with OVCAR-4; 3.13 µM (inactive) in the assay on RXF 393; 16.4 µM (inactive) in the assay on SF-268. For the same compound, the GI50 is 14.7 µM (inactive) in the assay with SK-MEL-5; 15.2 µM (inactive) in the assay on SN12C; 23.8 µM (inactive) in the assay with SNB-19; 2.72 µM (inactive) in the assay with SR; 1.72 µM (inactive) in the assay with SW-620; 17.3 µM (inactive) in the assay with U-251. In addition, the GI50 with UACC-257 was 5.12 µM (inactive).
In the case of `COc1cc(C2c3cc4c(cc3[C@@H](Nc3ccc5c(c3)OCCO5)C3COC(=O)[C@H]23)OCO4)cc(OC)c1O` (stereo not given in full), the GI50 is 0.104 µM (active) in the assay with A549; 0.585 µM (active) in the assay on ACHN; 3.9 µM (inactive) with BT-549; 1.25 µM with HCT-15; 0.478 µM (active) in the assay with HOP-92; 0.413 µM (active) with K562. In addition, the GI50 was 0.327 µM (active) in the assay with M14; 0.295 µM (active) in the assay on NCI-H226; 5.97 µM (inactive) in the assay on OVCAR-4; 0.453 µM (active) in the assay on RXF 393; 0.771 µM (active) with SF-268; 0.448 µM (active) with SK-MEL-5. The GI50 in the assay on SN12C is 0.627 µM (active); in the assay on SNB-19, 1.04 µM (active); in the assay with SR, < 0.0364 µM (active); in the assay with SW-620, 0.586 µM (active); in the assay on U-251, 0.516 µM (active); in the assay with UACC-257 it was 2.57 µM (inactive).

(Values after ChEMBL document CHEMBL1201862, “PubChem BioAssay data set” (2004).)
